Experimental findings from patent EP0148440A1, “1,3,4,5-Tetrahydrobenzo(c,d)indoles, process for their preparation and their uses” (Troponwerke GmbH & Co. KG, priority 1983, dated 1985) are described below.

The target in the test is T1, 5-HT2 (Rattus norvegicus, UniProt P14842).
T1 construct: Präfrontaler Cortex-Ratte; from tissue; host or cells: rat prefrontal cortex membranes
In words: Affinity to serotonin receptors: 5-HT2, displacement of ^3H-Ketanserin. Type of test: binding. The following applies: Präfrontaler Cortex-Ratte membranes, read-out: Inhibitionskonstante Ki.

T1 sequence (P14842 whole entry): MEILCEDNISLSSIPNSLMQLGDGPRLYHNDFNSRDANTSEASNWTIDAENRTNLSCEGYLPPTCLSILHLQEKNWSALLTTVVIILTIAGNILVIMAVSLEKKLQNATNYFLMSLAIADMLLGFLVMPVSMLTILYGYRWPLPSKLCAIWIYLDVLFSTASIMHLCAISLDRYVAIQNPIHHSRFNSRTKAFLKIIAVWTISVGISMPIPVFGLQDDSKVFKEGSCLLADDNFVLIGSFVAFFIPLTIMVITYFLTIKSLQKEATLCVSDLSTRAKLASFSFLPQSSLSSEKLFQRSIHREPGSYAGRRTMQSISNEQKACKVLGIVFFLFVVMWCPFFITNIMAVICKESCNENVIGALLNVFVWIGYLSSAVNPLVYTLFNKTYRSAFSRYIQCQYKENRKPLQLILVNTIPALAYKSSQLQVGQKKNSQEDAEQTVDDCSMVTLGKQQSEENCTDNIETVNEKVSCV

On to `CCCN(CCC)C1Cc2c[nH]c3ccc(OC)c(c23)C1` (stereo not shown) [Beispiel 1, 6-Methoxy-4-dipropylamino-1,3,4,5-tetrahydrobenz[c,d]-indol], for which the Ki turned out to be 1800 nM.

By Ki is commonly meant the dissociation constant of the complex between target and ligand, obtained from inhibition or displacement.
